Laboratory results: US10160747B2, “Compounds and methods for kinase modulation, and indications therefor” (Plexxikon Inc., priority 2016, dated 2018)

Legend:
Type in all cases: biochemical
[1] = molecular target: T1, FLT3-D835Y (Homo sapiens, UniProt P36888, D835Y); test: FLT3-D835Y recombinant enzyme kinase assay (AlphaScreen); conditions: 8 pt, GMean
T1 construct: purchased Invitrogen PV3967
T1 sequence (P36888 27-993 D835Y): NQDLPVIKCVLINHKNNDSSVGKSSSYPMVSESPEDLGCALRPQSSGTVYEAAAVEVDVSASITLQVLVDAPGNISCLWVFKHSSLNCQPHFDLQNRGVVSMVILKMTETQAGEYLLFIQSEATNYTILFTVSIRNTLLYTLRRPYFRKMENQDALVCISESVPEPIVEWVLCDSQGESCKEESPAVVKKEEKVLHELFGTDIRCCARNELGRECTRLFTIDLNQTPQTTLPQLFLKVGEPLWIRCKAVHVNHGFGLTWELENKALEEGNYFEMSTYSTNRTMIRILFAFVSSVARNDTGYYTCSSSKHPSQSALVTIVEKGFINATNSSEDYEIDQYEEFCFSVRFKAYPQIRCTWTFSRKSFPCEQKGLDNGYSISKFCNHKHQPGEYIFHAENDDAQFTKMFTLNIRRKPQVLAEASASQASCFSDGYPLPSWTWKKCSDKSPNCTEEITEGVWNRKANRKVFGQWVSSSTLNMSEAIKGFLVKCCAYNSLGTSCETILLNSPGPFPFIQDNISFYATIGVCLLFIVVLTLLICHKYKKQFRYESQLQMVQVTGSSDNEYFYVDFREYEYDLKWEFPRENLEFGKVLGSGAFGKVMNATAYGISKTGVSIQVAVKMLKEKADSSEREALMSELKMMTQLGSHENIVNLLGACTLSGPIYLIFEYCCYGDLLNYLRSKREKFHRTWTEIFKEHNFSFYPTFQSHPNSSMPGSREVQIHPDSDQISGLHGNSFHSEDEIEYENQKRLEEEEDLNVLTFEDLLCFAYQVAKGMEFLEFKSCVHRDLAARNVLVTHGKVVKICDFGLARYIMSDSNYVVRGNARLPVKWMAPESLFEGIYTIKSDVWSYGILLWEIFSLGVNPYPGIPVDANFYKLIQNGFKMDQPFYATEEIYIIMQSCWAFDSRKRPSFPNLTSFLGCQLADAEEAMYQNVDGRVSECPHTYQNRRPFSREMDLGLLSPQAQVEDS
Method in brief: (§1)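 Enzyme plus biotinylated poly(Glu4-Tyr) substrate (30 nM) mixed with compound, then ATP added. Donor beads went in for 20 min at room temperature, then PY20 acceptor beads for 60 min. AlphaScreen read; ATP was 10 μM for FLT3-ITD/D835Y and 100 μM for c-KIT.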

[2] = molecular target: T2, c-KIT (Homo sapiens, UniProt P10721); test: c-KIT recombinant enzyme kinase assay (AlphaScreen); conditions: 100 ATP, 8 pt
T2 construct: purchased Millipore 14-559K
T2 sequence (P10721 26-976): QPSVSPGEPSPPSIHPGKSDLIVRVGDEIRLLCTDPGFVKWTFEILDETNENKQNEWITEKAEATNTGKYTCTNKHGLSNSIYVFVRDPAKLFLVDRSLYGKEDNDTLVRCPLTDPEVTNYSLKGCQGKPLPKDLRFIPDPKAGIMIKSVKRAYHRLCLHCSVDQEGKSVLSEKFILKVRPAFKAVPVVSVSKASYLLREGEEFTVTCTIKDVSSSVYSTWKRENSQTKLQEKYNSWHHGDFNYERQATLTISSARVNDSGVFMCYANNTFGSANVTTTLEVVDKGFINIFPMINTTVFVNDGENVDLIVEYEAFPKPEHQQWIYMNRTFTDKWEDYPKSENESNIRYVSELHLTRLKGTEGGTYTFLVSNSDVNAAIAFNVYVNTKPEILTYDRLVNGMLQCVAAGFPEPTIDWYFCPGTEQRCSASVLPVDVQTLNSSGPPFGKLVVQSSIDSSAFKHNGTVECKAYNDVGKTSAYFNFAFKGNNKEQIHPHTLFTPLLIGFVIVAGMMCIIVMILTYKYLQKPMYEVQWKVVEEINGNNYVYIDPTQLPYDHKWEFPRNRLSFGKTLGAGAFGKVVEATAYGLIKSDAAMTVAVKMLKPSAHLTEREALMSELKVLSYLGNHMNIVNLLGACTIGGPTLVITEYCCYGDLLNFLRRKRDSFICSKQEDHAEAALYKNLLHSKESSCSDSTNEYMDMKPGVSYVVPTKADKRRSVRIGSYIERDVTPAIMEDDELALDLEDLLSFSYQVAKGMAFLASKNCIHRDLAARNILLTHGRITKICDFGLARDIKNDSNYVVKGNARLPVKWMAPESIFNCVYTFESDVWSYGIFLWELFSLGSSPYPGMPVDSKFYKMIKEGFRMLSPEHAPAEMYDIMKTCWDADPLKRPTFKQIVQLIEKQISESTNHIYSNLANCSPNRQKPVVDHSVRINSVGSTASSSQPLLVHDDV
Method in brief: as §1

[3] = molecular target: T3, FLT3-ITD (Homo sapiens, UniProt P36888); test: FLT3-ITD recombinant enzyme kinase assay (AlphaScreen); conditions: 8 pt; read-out: FLT3_ITD 8 pt: IC50
T3 sequence (P36888 1-993): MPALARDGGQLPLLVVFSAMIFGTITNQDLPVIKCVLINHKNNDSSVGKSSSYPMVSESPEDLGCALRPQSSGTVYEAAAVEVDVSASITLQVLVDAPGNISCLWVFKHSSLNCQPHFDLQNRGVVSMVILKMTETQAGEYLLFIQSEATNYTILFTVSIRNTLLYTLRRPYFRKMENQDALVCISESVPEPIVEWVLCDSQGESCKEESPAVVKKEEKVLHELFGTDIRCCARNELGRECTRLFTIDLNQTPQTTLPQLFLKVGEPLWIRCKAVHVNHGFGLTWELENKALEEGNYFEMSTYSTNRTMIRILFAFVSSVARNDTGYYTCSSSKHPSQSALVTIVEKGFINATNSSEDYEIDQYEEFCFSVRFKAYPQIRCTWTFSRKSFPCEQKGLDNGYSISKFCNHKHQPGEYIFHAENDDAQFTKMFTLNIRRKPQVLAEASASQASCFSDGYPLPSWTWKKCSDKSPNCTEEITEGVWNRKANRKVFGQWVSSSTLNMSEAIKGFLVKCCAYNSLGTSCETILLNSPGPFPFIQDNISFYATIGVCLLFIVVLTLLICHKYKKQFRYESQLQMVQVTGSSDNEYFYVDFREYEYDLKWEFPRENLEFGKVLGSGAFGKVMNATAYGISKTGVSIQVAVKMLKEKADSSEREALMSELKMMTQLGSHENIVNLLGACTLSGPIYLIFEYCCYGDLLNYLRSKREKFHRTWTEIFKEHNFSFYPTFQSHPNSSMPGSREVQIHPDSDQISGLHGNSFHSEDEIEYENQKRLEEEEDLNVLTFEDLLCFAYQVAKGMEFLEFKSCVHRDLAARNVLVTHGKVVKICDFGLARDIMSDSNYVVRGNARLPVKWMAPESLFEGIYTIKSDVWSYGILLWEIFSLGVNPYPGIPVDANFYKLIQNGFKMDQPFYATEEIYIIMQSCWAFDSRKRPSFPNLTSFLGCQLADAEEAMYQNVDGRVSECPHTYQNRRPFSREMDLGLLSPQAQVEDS
Method in brief: as §1

IC50 [1] | IC50 [2] | IC50 [3] | Compound
0.0001 to 10 µM | 0.0001 to 10 µM | 0.0001 to 10 µM | O=C(Cc1ccc(-c2cnc3[nH]cc(F)c3c2)cc1F)Nc1cncc(C(F)(F)F)c1 [Compound P-0053, 2-[2-fluoro-4-(3-fluoro-1H-pyrrolo[2,3-b]pyridin-5-yl)phenyl]-N-[5-(trifluoromethyl)-3-pyridyl]acetamide]
0.0001 to 10 µM | 0.0001 to 10 µM | 0.0001 to 10 µM | CC(=O)c1c[nH]c2ncc(-c3ccc(CC(=O)Nc4cncc(C(F)(F)F)c4)c(F)c3)cc12 [Compound P-0055, 2-[4-(3-acetyl-1H-pyrrolo[2,3-b]pyridin-5-yl)-2-fluoro-phenyl]-N-[5-(trifluoromethyl)-3-pyridyl]acetamide]
0.0001 to 10 µM | 0.0001 to 10 µM | 0.0001 to 10 µM | Cc1ncc(NC(=O)Cc2ccc(-c3cnc4c(c3)C3(CC3)C(=O)N4)cc2F)cc1C(F)(F)F [Compound P-0057, 2-[2-fluoro-4-(2-oxospiro[1H-pyrrolo[2,3-b]pyridine-3,1′-cyclopropane]-5-yl)phenyl]-N-[6-methyl-5-(trifluoromethyl)-3-pyridyl]acetamide]
0.0001 to 10 µM | 0.0001 to 10 µM | 0.0001 to 10 µM | O=C(Cc1ccc(-c2cnc(Nc3cnn4ccccc34)nc2)cc1F)Nc1cncc(C(F)(F)F)c1 [Compound P-0058, 2-[2-fluoro-4-[2-(pyrazolo[1,5-a]pyridin-3-ylamino)pyrimidin-5-yl]phenyl]-N-[5-(trifluoromethyl)-3-pyridyl]acetamide]
0.0001 to 10 µM | 0.0001 to 10 µM | 0.0001 to 10 µM | Cc1ncc(NC(=O)Cc2ccc(-c3cnc4[nH]cc(Cl)c4n3)cc2F)cc1C(F)(F)F [Compound P-0059, 2-[4-(7-chloro-5H-pyrrolo[2,3-b]pyrazin-2-yl)-2-fluoro-phenyl]-N-[6-methyl-5-(trifluoromethyl)-3-pyridyl]acetamide]
0.0001 to 10 µM | 0.0001 to 10 µM | 0.0001 to 10 µM | O=C(Cc1ccc(-c2cnc3[nH]cc(Cl)c3n2)cc1F)Nc1cnc(Cl)c(C(F)(F)F)c1 [Compound P-0060, 2-[4-(7-chloro-5H-pyrrolo[2,3-b]pyrazin-2-yl)-2-fluoro-phenyl]-N-[6-chloro-5-(trifluoromethyl)-3-pyridyl]acetamide]
0.0001 to 10 µM | 0.0001 to 10 µM | 0.0001 to 10 µM | O=C(Cc1ccc(-c2cnc3[nH]cc(Cl)c3n2)cc1F)Nc1cncc(C(F)(F)F)c1 [Compound P-0061, 2-[4-(7-chloro-5H-pyrrolo[2,3-b]pyrazin-2-yl)-2-fluoro-phenyl]-N-[5-(trifluoromethyl)-3-pyridyl]acetamide]
0.0001 to 10 µM | 0.0001 to 10 µM | 0.0001 to 10 µM | Cc1ncc(NC(=O)Cc2ccc(-c3cnc4[nH]cc(F)c4c3)cc2F)cc1C(F)(F)F [Compound P-0062, 2-[2-fluoro-4-(3-fluoro-1H-pyrrolo[2,3-b]pyridin-5-yl)phenyl]-N-[6-methyl-5-(trifluoromethyl)-3-pyridyl]acetamide]
0.0001 to 10 µM | 0.0001 to 10 µM | 0.0001 to 10 µM | CC(=O)c1c[nH]c2ncc(-c3ccc(CC(=O)Nc4cnc(C)c(C(F)(F)F)c4)c(F)c3)cc12 [Compound P-0063, 2-[4-(3-acetyl-1H-pyrrolo[2,3-b]pyridin-5-yl)-2-fluoro-phenyl]-N-[6-methyl-5-(trifluoromethyl)-3-pyridyl]acetamide]
0.0001 to 10 µM | 0.0001 to 10 µM | 0.0001 to 10 µM | Cc1ncc(NC(=O)Cc2ccc(-c3cnc(Nc4cnn5ccccc45)nc3)cc2F)cc1C(F)(F)F [Compound P-0065, 2-(2-fluoro-4-(2-(pyrazolo[1,5-a]pyridin-3-ylamino)pyrimidin-5-yl)phenyl)-N-(6-methyl-5-(trifluoromethyl)pyridin-3-yl)acetamide]
0.0001 to 10 µM | 0.0001 to 10 µM | 0.0001 to 10 µM | Cc1ncc(NC(=O)Cc2ccc(-c3cnc4[nH]nc(C5CC5)c4c3)cc2F)cc1C(F)(F)F [Compound P-0066, 2-(4-(3-cyclopropyl-1H-pyrazolo[3,4-b]pyridin-5-yl)-2-fluorophenyl)-N-(6-methyl-5-(trifluoromethyl)pyridin-3-yl)acetamide]
